Calls of active or inactive are those of the source. No rule for the calls is given here.
Target: G-protein coupled receptor 151 (Homo sapiens) (UniProt Q8TDV0)
Assay: GPR151 activator potency, dose response, cell-based (AID 1508610)
Details: cell-based GPR151 activation reporter

Sequence of G-protein coupled receptor 151 (Homo sapiens) (Q8TDV0 whole entry, looked up): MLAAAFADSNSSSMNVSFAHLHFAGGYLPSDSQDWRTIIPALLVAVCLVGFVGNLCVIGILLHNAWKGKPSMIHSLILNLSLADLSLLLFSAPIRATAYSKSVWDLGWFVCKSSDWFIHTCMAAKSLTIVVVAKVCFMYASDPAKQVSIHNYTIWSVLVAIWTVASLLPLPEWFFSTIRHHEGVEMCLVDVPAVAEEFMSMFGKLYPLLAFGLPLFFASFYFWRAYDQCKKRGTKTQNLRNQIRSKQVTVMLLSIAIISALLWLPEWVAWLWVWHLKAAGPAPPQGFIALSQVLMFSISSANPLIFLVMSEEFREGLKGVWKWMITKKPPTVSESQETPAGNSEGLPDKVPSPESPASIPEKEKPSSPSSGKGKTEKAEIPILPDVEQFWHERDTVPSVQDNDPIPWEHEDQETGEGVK

Compound | EC50
Cc1ccc(NC(=O)/C(C#N)=C\c2ccccc2O)cc1C | > 28 µM (inactive)
C1=Nc2ccccc2SC(c2cccnc2)=C1 | > 28.2 µM (inactive)
CCOc1ccc(S(=O)(=O)N(CC(=O)NCCSc2ccccc2)c2ccccc2)cc1 | > 26.6 µM (inactive)
Oc1csc(Cc2nc(-c3ccccc3F)cs2)n1 | > 28.7 µM (inactive)
NC(=O)c1ccsc1NC(=O)/C=C/c1ccccc1 | > 26.7 µM (inactive)
COC(=O)c1ccc(Nc2ncnc3c2cnn3-c2ccc(C)cc2C)cc1 | 0.00158 µM
C=CCOC(=O)C1=C(C)N2CCSC2=C(C#N)C1c1ccco1 (configuration not stated) | > 32 µM (inactive)
Cn1c(=O)c(=O)n(C)c2cc(S(=O)(=O)N3CCN(C(=O)c4ccco4)CC3)ccc21 | > 28 µM (inactive)
O=C1N[C@@H](Cc2ccc(Cl)cc2)C(=O)N2CCN(C(=O)c3cc(Cl)cc(Cl)c3)C[C@H]12 | > 28 µM (inactive)
O=C(Nc1cc(C(F)(F)F)ccc1F)C1CCCC1 | > 28 µM (inactive)
O=C(O)CCn1cc(C=C2C(=O)NC(=O)NC2=O)c(-c2ccc(Br)cc2)n1 | > 28 µM (inactive)
CC(=O)Oc1ccccc1C(=O)Nc1ncc([N+](=O)[O-])s1 | > 28 µM (inactive)
Cc1cc2nc(-c3cccnc3SCC(=O)NCc3ccco3)[nH]c2cc1C | > 28 µM (inactive)
N#Cc1nc2[nH]c(-c3ccccc3)cc(=O)n2c1C#N | > 30 µM (inactive)
O=C(O)CC1c2ccccc2CCN1S(=O)(=O)c1ccc(Cl)cc1 (configuration not stated) | inactive
CCOC(=O)C1=C(C)N=c2s/c(=C\c3ccc(-c4ccccc4C(=O)O)o3)c(=O)n2C1c1ccccc1OC (configuration not stated) | > 25.1 µM (inactive)
COc1ccc(-c2ccc(C(=O)NCc3cccnc3)s2)cc1 | > 28.2 µM (inactive)
COc1cc(Br)ccc1OCC(=O)N/N=C/c1ccc([N+](=O)[O-])cc1 | > 28 µM (inactive)
CC(C)N1CCC(=NNC(=O)c2ccc(C(C)(C)C)cc2)CC1 | > 28 µM (inactive)
O=C(Nc1ccc(Oc2cc3ccccc3cc2Cl)c(Cl)c1)c1cc(Br)cc(Br)c1O | > 17.2 µM (inactive)
CSc1ccc(/C=N/NC(=O)C[n+]2ccccc2)cc1 | > 28 µM (inactive)
CC1CCCC(NCc2c(C(=O)O)n(Cc3ccccc3F)c3ccccc23)C1C (configuration not stated) | > 28 µM (inactive)
O=C(Nc1ccc(-c2cccc(F)c2)cc1)C1CCCN(C(=O)C2CCOCC2)C1 (configuration not stated) | > 28 µM (inactive)
OCCC1CN(Cc2ccc3nonc3c2)CCN1Cc1ccc(F)c(F)c1 (configuration not stated) | > 28 µM (inactive)

Compound | EC50
CCC(C)OC(=O)C1=C(C)NC2=C(C(=O)CC(c3ccc(OC)cc3)C2)C1c1cc(OC)c(OC)cc1Br (configuration not stated) | > 22.4 µM (inactive)
CCn1ccnc1CN1CCN(Cc2ccc(F)cc2)C(CCO)C1 (configuration not stated) | > 28 µM (inactive)
CCOC(=O)c1c(C)c(C(=O)NCCC(C)C)c(C)n1C | > 28 µM (inactive)
COc1ccc(-c2ccc(/C=N/N3C(=O)C4C5C=CC(C6CC56)C4C3=O)o2)c([N+](=O)[O-])c1 (configuration not stated) | > 28 µM (inactive)
N#C/C(=C\c1c(Oc2ccc(Cl)cc2Cl)nc2ccccn2c1=O)C(N)=O | > 27.9 µM (inactive)
O=C(CCn1nc(-c2ccccc2)c2ccccc2c1=O)NCc1ccccc1 | > 28 µM (inactive)
CC(=O)Nc1ccc(Nc2nc(-c3ccc(C(=O)NC4CC4)cc3)nc3nc[nH]c23)cc1 | > 27.8 µM (inactive)
Cc1ccc(Nc2ncnc3sc(C)c(C)c23)cc1F | > 31.6 µM (inactive)
NN1C(=O)c2ccccc2NC1C1CC=CCC1 (configuration not stated) | > 28 µM (inactive)
COc1ccc(CCNc2cc(C)nc(Nc3ccc(-n4ccnc4)cc3)n2)cc1 | 1.17 µM
COc1cccc2oc(-c3ccccc3)cc(=O)c12 | > 28 µM (inactive)
COc1ccc(/C=C/C(=O)Nc2ccccc2C(=O)O)cc1OC | > 28 µM (inactive)
CC1CCN(S(=O)(=O)c2ccc(NC(=O)CSc3nc4ccccc4o3)cc2)CC1 | inactive
Cn1ncc2c(NCCc3ccc(Cl)cc3Cl)ncnc21 | > 27.8 µM (inactive)
Cc1ccc2cc(CN(CC3CCCO3)C(=O)C3CCC3)c3nnnn3c2c1 (configuration not stated) | > 28 µM (inactive)
CC(C)(C)OC(=O)NNC(=O)/C=C/c1cc(Br)ccc1F | > 28.1 µM (inactive)
O=C(Nc1c2c(nn1-c1cccc(Cl)c1)CSC2)c1ccccc1Br | > 20.9 µM (inactive)
COc1ccc(CCNc2ccnc(Nc3ccc(N4CCOCC4)cc3)n2)cc1 | inactive
Nc1ncc(Br)cc1S(=O)(=O)N1CCN(C2CCCCC2)CC1 | > 28 µM (inactive)
COc1ccc(-c2ccc(C(=O)NC3CC3)s2)cc1 | > 28 µM (inactive)
O=S(=O)(NN=C1CCCCCC1)c1ccccc1 | > 28 µM (inactive)
CN1CCN(C(=O)c2ccc(-c3nc4ccc(C(=O)NCCOc5ccccc5)cc4s3)cc2)CC1 | > 28.1 µM (inactive)
COc1ccc(/C=C/C(=O)Nc2ccccc2)cc1 | > 32.6 µM (inactive)
COc1ccc(-c2ccc(C(=O)NCCc3ccc(O)cc3)s2)cc1 | > 27.7 µM (inactive)

Compound | EC50
O=C(NCSc1ccncn1)c1ccccc1 | > 41.2 µM (inactive)
COCCNCCOc1ccc(C)cc1C | > 28 µM (inactive)
COc1ccc(-c2noc(-c3cc4ccc(OC)cc4oc3=O)n2)cc1 | > 28 µM (inactive)
CCCCCNC(=O)c1c(O)c2c([nH]c1=O)CCCC2 | > 34.1 µM (inactive)
O=C(Oc1ccc2cc(Br)ccc2c1)c1ccco1 | > 25.9 µM (inactive)
CC(C)=CCN1CCN(Cc2sccc2C)CC1CCO (configuration not stated) | > 28 µM (inactive)
COc1ccc(C2C3C(C)=NN=C3CC(C)(O)C2C(C)=O)cc1 (configuration not stated) | inactive
CCN(CC)S(=O)(=O)c1ccc(-c2csc(=Nc3ccccc3OC)n2CC)cc1 | > 17.3 µM (inactive)
COc1ccc(Br)cc1C(=O)NCC1COc2ccccc2O1 (configuration not stated) | > 28 µM (inactive)
O=C(Nc1nc2ccccc2[nH]1)c1ccc(Cl)cc1Cl | > 29.3 µM (inactive)
O=C(Nc1ncc(C(O)(C(F)(F)F)C(F)(F)F)s1)c1ccccc1Cl | > 30.5 µM (inactive)
Cn1c(=O)[nH]c(=O)c2c1nc(N1CCN(c3cccc(Cl)c3)CC1)n2Cc1ccccc1 | > 22.4 µM (inactive)
COc1ccc(-c2nc3ccccc3[nH]2)cc1 | > 35 µM (inactive)
COc1ccc(-c2nnc(/C=C/c3cccs3)o2)cc1 | > 27.6 µM (inactive)
OC(c1cccnc1)c1ccc2c(c1)CN(Cc1cccc(Cl)c1)CCO2 (configuration not stated) | > 28 µM (inactive)
O=C(Nc1ccc(Br)cn1)c1ccc(N2CCCCC2)c([N+](=O)[O-])c1 | > 28 µM (inactive)
CN(C)CCN(C)C(=O)c1cccc(OC2CCN(C3CCSCC3)CC2)c1 | > 28 µM (inactive)
Cc1ccc(CCNS(=O)(=O)c2ccc3c(c2)OCCN3C)cc1 | > 28 µM (inactive)
Cc1ccc(-c2nc(-c3ccccn3)no2)cc1Cl | > 35 µM (inactive)
Cc1ccc(S(=O)(=O)N(CC(O)Cn2nc(C)cc2C)c2cccc([N+](=O)[O-])c2)cc1 (configuration not stated) | > 28 µM (inactive)
CCOC(=O)c1cc(C)n(CCc2ccccc2)c1C | > 39.1 µM (inactive)
COc1cc(CNc2ccc3ncc(-c4cnn(C)c4)n3n2)cc(OC)c1OC | > 28 µM (inactive)
O=C(NN=C1CCCCC1)C(O)(c1ccccc1)c1ccccc1 | > 28 µM (inactive)
O=c1c2ccccc2cnn1-c1nc2ccccc2[nH]1 | > 29.9 µM (inactive)

From PubChem BioAssay AID1508610 (The Scripps Research Institute Molecular Screening Center, 2020)
